Two compounds from patent US20230414826A1, “FIBRIN HYDROGELS” (Mayo Foundation for Medical Education and Research, priority 2020, published 2023) can be followed below.

The target of this test is T1, fibrin gels (40 mg/mL fibrinogen, 33 U/mL thrombin) (Homo sapiens, UniProt P02671+P02675+P02679).
T1 construct: purchased Ethicon (Evicel)
T1 sequence (P02671 20-644 isoform P02671-2 limits assumed): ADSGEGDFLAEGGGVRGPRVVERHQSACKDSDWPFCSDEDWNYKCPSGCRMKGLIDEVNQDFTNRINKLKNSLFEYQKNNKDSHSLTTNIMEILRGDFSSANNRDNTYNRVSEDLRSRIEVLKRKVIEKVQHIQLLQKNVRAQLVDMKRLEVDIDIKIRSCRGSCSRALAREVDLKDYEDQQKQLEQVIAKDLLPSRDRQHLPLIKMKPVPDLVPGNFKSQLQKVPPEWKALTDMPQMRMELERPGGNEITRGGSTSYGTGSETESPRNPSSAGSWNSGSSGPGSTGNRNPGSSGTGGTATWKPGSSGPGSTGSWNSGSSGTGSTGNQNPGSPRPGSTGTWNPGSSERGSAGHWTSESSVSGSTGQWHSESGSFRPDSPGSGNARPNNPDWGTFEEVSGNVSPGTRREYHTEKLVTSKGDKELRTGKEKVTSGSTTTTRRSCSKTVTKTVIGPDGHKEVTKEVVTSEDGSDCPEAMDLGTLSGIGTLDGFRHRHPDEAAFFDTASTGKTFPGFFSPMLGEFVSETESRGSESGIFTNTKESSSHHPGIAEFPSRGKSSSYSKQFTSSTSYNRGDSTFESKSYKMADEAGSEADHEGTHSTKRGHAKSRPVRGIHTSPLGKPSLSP
T1 sequence (P02675 45-491 limits assumed): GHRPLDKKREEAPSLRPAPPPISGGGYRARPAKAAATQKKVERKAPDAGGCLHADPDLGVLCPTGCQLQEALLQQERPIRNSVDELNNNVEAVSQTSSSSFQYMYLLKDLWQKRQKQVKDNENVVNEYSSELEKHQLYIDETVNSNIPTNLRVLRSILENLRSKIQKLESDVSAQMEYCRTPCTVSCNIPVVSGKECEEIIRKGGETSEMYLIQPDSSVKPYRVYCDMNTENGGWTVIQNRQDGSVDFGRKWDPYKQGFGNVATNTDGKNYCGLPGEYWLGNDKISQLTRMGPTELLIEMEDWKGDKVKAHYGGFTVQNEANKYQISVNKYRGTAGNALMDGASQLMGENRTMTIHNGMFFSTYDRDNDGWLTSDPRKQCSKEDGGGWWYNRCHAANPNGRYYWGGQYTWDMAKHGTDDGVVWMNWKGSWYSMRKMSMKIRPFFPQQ
T1 sequence (P02679 27-437 isoform P02679-2 limits assumed): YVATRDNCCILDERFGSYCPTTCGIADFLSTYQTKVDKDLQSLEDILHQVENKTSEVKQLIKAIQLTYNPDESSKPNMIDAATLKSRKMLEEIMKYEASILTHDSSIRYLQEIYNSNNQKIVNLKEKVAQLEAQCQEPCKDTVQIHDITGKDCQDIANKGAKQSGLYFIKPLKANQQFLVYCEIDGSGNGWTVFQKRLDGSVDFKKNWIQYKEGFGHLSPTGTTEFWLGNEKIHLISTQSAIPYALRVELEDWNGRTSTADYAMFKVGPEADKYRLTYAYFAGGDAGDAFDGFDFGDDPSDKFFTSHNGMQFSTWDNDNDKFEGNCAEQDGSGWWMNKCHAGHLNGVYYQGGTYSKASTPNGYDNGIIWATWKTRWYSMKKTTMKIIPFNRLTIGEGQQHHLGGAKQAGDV
The experiment in a line: Transmission electron microscopy of fibrin gel cross sections. The note with it: TEM, 0.12% w/v dye. On the procedure:
Both scanning electron microscopy (SEM) and transmission electron microscopy (TEM) were performed to investigate the effect of the chemical additives on fibril formation microstructure. Gels were made with PBS, TB, or EB as described elsewhere (see, e.g., Gandhi et al., 2018 Acta Biomater., 67:134-46) with the following modifications. Briefly, a mixture of 40 mg/mL fibrinogen, 33 U/mL thrombin, and 0.12% w/v dye final concentrations was plated into a custom acetal mold to create the 300 μm sheet. After a 2 hour incubation at 37° C., the gels were hydrated in PBS for a minimum of 15 minutes.
The gels were then fixed overnight in 2.5% paraformaldehyde and 1% glutaraldehyde in 0.1 M phosphate buffer pH 7 containing 1.0 mM MgCl2 and 0.13 mM CaCl2. After fixation, gels were processed for scanning electron microscopy (SEM). Samples for TEM were processed by initially dehydrating the gels, embedding into plastic resin, and sectioned at a thickness of 100 nm. SEM imaging was performed using a Hitachi S-4700 (Hitachi High Technologies; Schaumburg, IL) microscope. Sections processed for TEM were imaged used a JEOL 1400 microscope (JEOL; Peabody, MA).
TEM was then performed to visualize the cross section of the fibrin gels. […] The PBS fibrin gel appears to have larger mesh spaces, with a large range of fibril diameters and orientation. […]

As to `Cc1cc(-c2ccc(/N=N/c3ccc4c(S(=O)(=O)O)cc(S(=O)(=O)O)c(N)c4c3O)c(C)c2)ccc1/N=N/c1ccc2c(S(=O)(=O)O)cc(S(=O)(=O)O)c(N)c2c1O` [EB, Evans Blue], the largest fibril diameters is reported as 40-60 nm.

As for `Cc1cc(-c2ccc(/N=N/c3c(S(=O)(=O)O)cc4cc(S(=O)(=O)O)cc(N)c4c3O)c(C)c2)ccc1/N=N/c1c(S(=O)(=O)O)cc2cc(S(=O)(=O)O)cc(N)c2c1O` [TB, Trypan Blue], the largest fibril diameters is given as 50-75 nm.
